Laboratory results published in patent US11602514B2, “Medicament having anti-inflammatory bowel disease function, and preparation method therefor and application thereof” (SUZHOU PHARMAVAN CO., LTD, priority 2018, dated 2023).
Entries after “also recorded” stand apart in the source; their conditions may differ.

Columns and labels:
SD rats = experiment: acute toxicity, single oral dose; type: in vivo; details: single intragastric administration, 14 days observation
From the text: (§1) Trial method: 30 SD rats, half male and half female, were used. The average weight was 160-200 g for female rats and 180-220 g for male rats when grouped. An individual weight should be within ±20% of the average weight. Before the test, animals needed to accommodate to the environment for at least 5 days, and healthy rats (female rats should be not pregnant) were selected as test animals. Matter detected during the accommodation period mainly was: whether the rats were consistent with quality indexes required in the order; detection of general conditions; and whether the weight was within the weight range required by the test. Unqualified abnormal animals were excluded from the test. A single dosage was orally administered to rats at a low, medium, or high dose. […] A control group was set with the oral administration of the same volume of solvent.
(§2) The rats were observed about 0-2 h and 4-6 h after each administration. If a toxicity symptom occurs, the rats may be observed more times. (2) Gross anatomical observation: on the 14th day of the test, all surviving rats in each group were dissected and observed, and for administration sites and gross dissection, abnormal organs and tissues which were observed and found to be potentially related to test samples were photographed and recorded. (3) Disposal of dying animals: status of rats and observation time were recorded, and their weights were measured. (4) Disposal of dead animals: the time of death or when a rat was found dead were recorded. The rat was measured for weight before quickly dissected for gross observation and speculated for a cause of death.

[1] = acute toxicity, single oral dose; type: in vivo; details: both sexes, SD, rat, in vivo, po; single intragastric administration; read-out: MTD (tolerance to acute toxicity of a single dosage)
From the text: as §1, §2

[2] = test system: IL-6 secreted by mouse macrophages RAW264.7 induced by LPS; experiment: IL-6 secreted by LPS-induced RAW264.7 macrophages (ELISA); type: cell-based; details: LPS 100 ng/mL, 24 h; FIG. 5
Description: (§3) Effects of myricanol derivatives on the expression of inflammatory factors such as IL-6, TNF-α, PEG2 secreted by a mouse macrophage cell strain RAW 264.7 induced by bacterial lipopolysaccharide (hereinafter referred to as LPS) stimulus: A pre-prepared cell suspension was inoculated in a 96-well plate at 15000 cells/well and 100 μl/well and cultured overnight in an incubator with 5% CO2 at 37° C. At 80% cell confluence, the original culture medium was discarded, and each well was added with 100 μl of prepared drug solution to be tested with a different concentration, cultured for 1 h, and then added with a LPS solution, where the final concentration of LPS in the culture system was 100 ng/mL. Each concentration was set with 3 parallel wells, and a cell control group (no drug and no solvent) and a blank medium control group (no cells, a well for zero adjustment) were set. They were cultured for another 24 h. Cell culture supernatants were aspirated, and an R&D ELISA detection kit (M6000B; MTA00B; VAL601) was used for detecting the expression of the inflammatory factors such as IL-6, TNF-α, and PEG2 in each group. Cell proteins were collected, and a […] method was used for detecting COX-2 protein expression in each group.

[3] = test system: acute IBD model induced by 5% DSS; experiment: DSS-induced mouse in vivo model of IBD; design: species or system C57BL/6 mice; details: tail vein 5, 2.5, 1.25 mg/kg, 4 days
Description: Female SPF-grade C57BL/6 mice each with an age of 6 to 8 weeks were subjected to adaptive feeding for 3-7 days, and then fed with 5% aqueous solution of DSS in a free water-drinking manner (day0). The original aqueous solution of DSS was replaced with a fresh aqueous solution of DSS every 2 days. After the mice freely drank the aqueous solution of DSS for 7 days (day7), they were fed with fresh purified water. After 4 days of modeling, medicament was administered on the 5th day of modeling. Animals were administered via tail veins with 5 mg/kg, 2.5 mg/kg, and 1.25 mg/kg of the medicament for treatment. The animals were administered with the medicament for 4 continuous days, and then observed for 1 day. The experiments were terminated 24 h after the last administration.
Detection indexes: the weight of each group of animals was observed and recorded every day, and feces of each animal were collected to detect occult blood in the feces. If obvious blood in the feces cannot be determined, an occult blood detection kit was used for confirming the occult blood, and the result was recorded on an experimental record paper and photographed. When the experiments ended, animal serum was collected to detect the expression of IL-6 in the blood. At the same time, the fecal traits, occult blood, and weight change rate of each animal were scored, and the scores were added to give a DAI score for the animal. Colorectal tissue samples of the animals were collected for the subsequent pathological detection and detection of MPO in the tissue.

[4] = test system: COX2 protein expressed by mouse macrophages RAW264.7; experiment: COX2 protein expression in LPS-induced RAW264.7 macrophages (blot); type: cell-based; details: FIG. 8
Description: as §3

[5] = test system: PGE2 secreted by mouse macrophages RAW264.7 induced by LPS; experiment: PGE2 secreted by LPS-induced RAW264.7 macrophages (ELISA); type: cell-based; details: for PGE2: LPS alone 1154.90 ± 84.20, control −407.37 ± 57.67
Description: as §3

[6] = test system: mouse macrophages RAW264.7; experiment: effect on proliferation activity of mouse macrophages RAW264.7; type: cell-based; details: 80 μM; n=3; FIG. 4

## COc1c2cc(c(O)c1OC)CCCCC(OS(=O)(=O)O)CCc1ccc(O)c-2c1 (centres unmarked) [compound H, 11-sulfonyloxy myricanol]
SD rats; 100 mg/kg
  Test Endpoint (toxic side effects): No obvious toxic
SD rats; 300 mg/kg
  Test Endpoint (toxic side effects): No obvious toxic
SD rats; 1000 mg/kg
  Test Endpoint (toxic side effects): No obvious toxic
SD rats; 1500 mg/kg
  Test Endpoint (toxic side effects): No obvious toxic
[1]
  MTD at 14 days: > 1500 mg/kg
[2]
  inhibition of LPS-induced IL-6 secretion of RAW264.7 cells: very strong effects of inhibiting
[3]; FIG. 10 (5 mg/kg vs 5% DSS p<0.01)
  weight change rate (weight loss trend): slowing the weight loss trend
[3]; FIG. 11
  level of IL-6 protein in serum: significant anti-inflammatory effect
[3]; FIG. 12
  DAI score: significant effect of reducing the DAI scores
[3]; FIG. 13
  colorectal pathology (injuries of intestinal mucosa): significant effect of repairing injuries of intestinal mucosa
[3]; FIG. 14
  colorectal MPO (oxidative injuries): a certain effect of improving oxidative injuries
[4]
  COX2 protein expression inhibition compared with myricanol: better inhabitation effects than myricanol
  inhibition of protein expression of IBD-related COX2: can inhibit
[5]; FIG. 9
  dose dependence of the activity for inhibiting PGE2: well dose-dependent
[5]; LPS 100 ng/mL, 24 h, FIGS. 7 and 9
  inhibition of PGE2 secreted by RAW264.7 induced by LPS: significant effect of inhibiting PGE2; also recorded: strong ability to inhibit
[5]; LPS + 10 μM
  PGE2: 804.30 ± 18.46 pg/mL
[5]; LPS + 20 μM
  PGE2: 604.66 ± 97.52 pg/mL
[5]; LPS + 30 μM
  PGE2: 448.16 ± 55.26 pg/mL
[5]; LPS + 40 μM
  PGE2: 289.30 ± 109.41 pg/mL
[5]; LPS + 60 μM
  PGE2: -82.01 ± 357.30 pg/mL
[5]; LPS + 80 μM
  PGE2: -338.14 ± 138.40 pg/mL
[5]; dose of 20 μM, FIG. 9
  PGE2 inhibition compared with myricanol: better inhabitation effect than myricanol
[6]
  effect on proliferation activity of mouse macrophages RAW264.7: no significant effects
